Test results reported in ChEMBL document CHEMBL3352489, “6-Hydroxyquinolinium salts differing in the length of alkyl side-chain: synthesis and antimicrobial activity” (Bioorg Med Chem Lett, 2014).

Legend:
[1] = system: Escherichia coli; test: Bactericidal activity against Escherichia coli CCM 4517 after 48 hrs by microdilution broth method; format: functional; conditions: CCM 4517, 48 h, read-out: MBC>99.9
[2] = Retention time of the compound by gradient elution based HPLC method; format: physicochemical
[3] = system: Staphylococcus epidermidis; test: microbe, parasite or virus in culture; format: functional; conditions: H 6966/08, 48 h
Description: Antibacterial activity against Staphylococcus epidermidis H 6966/08 after 48 hrs by microdilution broth method

[4] = system: Candida tropicalis; test: microbe, parasite or virus in culture; format: functional; conditions: Candida tropicalis, 156, 48 h
Description: Antifungal activity against Candida tropicalis 156 after 48 hrs by modified standard CSLI M27-A2 method

[5] = system: Klebsiella pneumoniae; test: Bactericidal activity against Klebsiella pneumoniae D 11750/08 after 24 hrs by microdilution broth method; format: functional; conditions: D 11750/08, 24 h, read-out: MBC>99.9
[6] = Cytotoxicity against CHOK1 cells after 24 hrs by MTT assay; format: ADME, cell-based; conditions: Cricetulus griseus, CHO-K1, 24 h
[7] = system: Klebsiella pneumoniae; test: Bactericidal activity against Klebsiella pneumoniae J 14368/08 after 48 hrs by microdilution broth method; format: functional; conditions: J 14368/08, 48 h, read-out: MBC>99.9
[8] = system: Pichia kudriavzevii; test: Antifungal activity against Candida krusei E28 after 24 hrs by modified standard CSLI M27-A2 method; format: functional; conditions: E28, 24 h
[9] = system: Lichtheimia corymbifera; test: Fungicidal activity against Absidia corymbifera 272 after 48 hrs by modified standard CSLI M27-A2 method; format: functional; conditions: Lichtheimia corymbifera, 272, 48 h
[10] = system: Enterococcus sp.; test: microbe, parasite or virus in culture; format: functional; conditions: J 14365/08, 48 h
Description: Antibacterial activity against Enterococcus sp. J 14365/08 after 48 hrs by microdilution broth method

[11] = system: Escherichia coli; test: microbe, parasite or virus in culture; format: functional; conditions: CCM 4517, 48 h
Description: Antibacterial activity against Escherichia coli CCM 4517 after 48 hrs by microdilution broth method

[12] = system: Lichtheimia corymbifera; test: microbe, parasite or virus in culture; format: functional; conditions: Lichtheimia corymbifera, 272, 48 h
Description: Antifungal activity against Absidia corymbifera 272 after 48 hrs by modified standard CSLI M27-A2 method

[13] = system: Pichia kudriavzevii; test: Antifungal activity against Candida krusei E28 after 48 hrs by modified standard CSLI M27-A2 method; format: functional; conditions: E28, 48 h
[14] = system: Staphylococcus aureus; test: microbe, parasite or virus in culture; format: functional; conditions: CCM 4516/08, 48 h
Description: Antibacterial activity against Staphylococcus aureus CCM 4516/08 after 48 hrs by microdilution broth method

[15] = system: Staphylococcus aureus; test: microbe, parasite or virus in culture; format: functional; conditions: H 5996/08, 24 h
Description: Antibacterial activity against Staphylococcus aureus H 5996/08 after 24 hrs by microdilution broth method

[16] = system: Candida albicans; test: Fungicidal activity against Candida albicans ATCC 44859 after 48 hrs by modified standard CSLI M27-A2 method; format: functional; conditions: ATCC 44859, 48 h
[17] = system: Klebsiella pneumoniae; test: microbe, parasite or virus in culture; format: functional; conditions: J 14368/08, 24 h
Description: Antibacterial activity against Klebsiella pneumoniae J 14368/08 after 24 hrs by microdilution broth method

[18] = system: Trichosporon asahii; test: microbe, parasite or virus in culture; format: functional; conditions: Trichosporon asahii, 1188, 48 h
Description: Antifungal activity against Trichosporon asahii 1188 after 48 hrs by modified standard CSLI M27-A2 method

[19] = system: Candida albicans; test: microbe, parasite or virus in culture; format: functional; conditions: ATCC 44859, 24 h
Description: Antifungal activity against Candida albicans ATCC 44859 after 24 hrs by modified standard CSLI M27-A2 method

[20] = system: Candida tropicalis; test: Fungicidal activity against Candida tropicalis 156 after 48 hrs by modified standard CSLI M27-A2 method; format: functional; conditions: Candida tropicalis, 156, 48 h
[21] = system: Staphylococcus epidermidis; test: Bactericidal activity against Staphylococcus epidermidis H 6966/08 after 48 hrs by microdilution broth method; format: functional; conditions: H 6966/08, 48 h, read-out: MBC>99.9
[22] = system: Staphylococcus aureus; test: Bactericidal activity against Staphylococcus aureus H 5996/08 after 48 hrs by microdilution broth method; format: functional; conditions: H 5996/08, 48 h, read-out: MBC>99.9
[23] = system: Lichtheimia corymbifera; test: microbe, parasite or virus in culture; format: functional; conditions: Lichtheimia corymbifera, 272, 24 h
Description: Antifungal activity against Absidia corymbifera 272 after 24 hrs by modified standard CSLI M27-A2 method

[24] = system: Trichosporon asahii; test: Fungicidal activity against Trichosporon asahii 1188 after 48 hrs by modified standard CSLI M27-A2 method; format: functional; conditions: Trichosporon asahii, 1188, 48 h
[25] = system: Klebsiella pneumoniae; test: microbe, parasite or virus in culture; format: functional; conditions: J 14368/08, 48 h
Description: Antibacterial activity against Klebsiella pneumoniae J 14368/08 after 48 hrs by microdilution broth method

[26] = system: Escherichia coli; test: microbe, parasite or virus in culture; format: functional; conditions: CCM 4517, 24 h
Description: Antibacterial activity against Escherichia coli CCM 4517 after 24 hrs by microdilution broth method

[27] = system: Enterococcus sp.; test: Bactericidal activity against Enterococcus sp. J 14365/08 after 48 hrs by microdilution broth method; format: functional; conditions: J 14365/08, 48 h, read-out: MBC>99.9
[28] = system: Aspergillus fumigatus; test: Fungicidal activity against Aspergillus fumigatus 231 after 48 hrs by modified standard CSLI M27-A2 method; format: functional; conditions: Aspergillus fumigatus, 231, 48 h
[29] = system: Staphylococcus aureus; test: microbe, parasite or virus in culture; format: functional; conditions: CCM 4516/08, 24 h
Description: Antibacterial activity against Staphylococcus aureus CCM 4516/08 after 24 hrs by microdilution broth method

[30] = system: Aspergillus fumigatus; test: microbe, parasite or virus in culture; format: functional; conditions: Aspergillus fumigatus, 231, 24 h
Description: Antifungal activity against Aspergillus fumigatus 231 after 24 hrs by modified standard CSLI M27-A2 method

[31] = system: Klebsiella pneumoniae; test: microbe, parasite or virus in culture; format: functional; conditions: D 11750/08, 24 h
Description: Antibacterial activity against Klebsiella pneumoniae D 11750/08 after 24 hrs by microdilution broth method

[32] = system: Enterococcus sp.; test: microbe, parasite or virus in culture; format: functional; conditions: J 14365/08, 24 h
Description: Antibacterial activity against Enterococcus sp. J 14365/08 after 24 hrs by microdilution broth method

[33] = system: Nakaseomyces glabratus; test: Antifungal activity against Candida glabrata 20/I after 24 hrs by modified standard CSLI M27-A2 method; format: functional
[34] = system: Trichosporon asahii; test: microbe, parasite or virus in culture; format: functional; conditions: Trichosporon asahii, 1188, 24 h
Description: Antifungal activity against Trichosporon asahii 1188 after 24 hrs by modified standard CSLI M27-A2 method

[35] = system: Klebsiella pneumoniae; test: microbe, parasite or virus in culture; format: functional; conditions: D 11750/08, 48 h
Description: Antibacterial activity against Klebsiella pneumoniae D 11750/08 after 48 hrs by microdilution broth method

[36] = system: Staphylococcus aureus; test: microbe, parasite or virus in culture; format: functional; conditions: H 5996/08, 48 h
Description: Antibacterial activity against Staphylococcus aureus H 5996/08 after 48 hrs by microdilution broth method

[37] = system: Pseudomonas aeruginosa; test: microbe, parasite or virus in culture; format: functional; conditions: CCM 1961, 120 h
Description: Antibacterial activity against Pseudomonas aeruginosa CCM 1961 after 120 hrs by microdilution broth method

[38] = system: Nakaseomyces glabratus; test: Antifungal activity against Candida glabrata 20/I after 48 hrs by modified standard CSLI M27-A2 method; format: functional
[39] = system: Pichia kudriavzevii; test: Fungicidal activity against Candida krusei E28 after 48 hrs by modified standard CSLI M27-A2 method; format: functional; conditions: E28, 48 h
[40] = system: Candida albicans; test: microbe, parasite or virus in culture; format: functional; conditions: ATCC 44859, 48 h
Description: Antifungal activity against Candida albicans ATCC 44859 after 48 hrs by modified standard CSLI M27-A2 method

[41] = system: Nakaseomyces glabratus; test: Fungicidal activity against Candida glabrata 20/I after 48 hrs by modified standard CSLI M27-A2 method; format: functional
[42] = system: Pseudomonas aeruginosa; test: microbe, parasite or virus in culture; format: functional; conditions: CCM 1961, 72 h
Description: Antibacterial activity against Pseudomonas aeruginosa CCM 1961 after 72 hrs by microdilution broth method

[43] = system: Pseudomonas aeruginosa; test: Bactericidal activity against Pseudomonas aeruginosa CCM 1961 after 120 hrs by microdilution broth method; format: functional; conditions: CCM 1961, 120 h, read-out: MBC>99.9
[44] = system: Candida tropicalis; test: microbe, parasite or virus in culture; format: functional; conditions: Candida tropicalis, 156, 24 h
Description: Antifungal activity against Candida tropicalis 156 after 24 hrs by modified standard CSLI M27-A2 method

[45] = system: Trichophyton mentagrophytes; test: microbe, parasite or virus in culture; format: functional; conditions: Trichophyton mentagrophytes, 445, 72 h
Description: Antifungal activity against Trichophyton mentagrophytes 445 after 72 hrs by modified standard CSLI M27-A2 method

[46] = system: Staphylococcus epidermidis; test: microbe, parasite or virus in culture; format: functional; conditions: H 6966/08, 24 h
Description: Antibacterial activity against Staphylococcus epidermidis H 6966/08 after 24 hrs by microdilution broth method

[47] = system: Aspergillus fumigatus; test: microbe, parasite or virus in culture; format: functional; conditions: Aspergillus fumigatus, 231, 48 h
Description: Antifungal activity against Aspergillus fumigatus 231 after 48 hrs by modified standard CSLI M27-A2 method

[48] = system: Trichophyton mentagrophytes; test: microbe, parasite or virus in culture; format: functional; conditions: Trichophyton mentagrophytes, 445, 120 h
Description: Antifungal activity against Trichophyton mentagrophytes 445 after 120 hrs by modified standard CSLI M27-A2 method

[49] = system: Staphylococcus aureus; test: Bactericidal activity against Staphylococcus aureus CCM 4516/08 after 48 hrs by microdilution broth method; format: functional; conditions: CCM 4516/08, 48 h, read-out: MBC>99.9
[50] = Retention time of the compound by isocratic elution based HPLC method; format: physicochemical
[51] = system: Trichophyton mentagrophytes; test: Fungicidal activity against Trichophyton mentagrophytes 445 after 120 hrs by modified standard CSLI M27-A2 method; format: functional; conditions: Trichophyton mentagrophytes, 445, 120 h

CCCCCCCCCCCCCC[n+]1cccc2cc(O)ccc21.[Br-] gave an MBC [1] of 62.5 µM, a Retention_time [2] of 10.05 min and an MIC95 [3] of 0.98 µM. It also gave an MIC [4] of 15.6 µM, an MBC [5] of 62.5 µM and an IC50 [6] of 32 µM. It also gave an MBC [7] of 62.5 µM, an MIC [8] of 7.81 µM and an MFC [9] of 125 µM. It also gave an MIC95 [10] of 1.95 µM, an MIC95 [11] of 31.2 µM and an MIC [12] of 31.2 µM. The MIC [13] was 7.81 µM, the MIC95 [14] was 1.95 µM and the MIC95 [15] was 7.81 µM. For the same molecule, the MFC [16] was 15.6 µM, the MIC95 [17] was 31.2 µM and the MIC [18] was 31.2 µM. The MIC [19] was 7.81 µM, the MFC [20] was 15.6 µM and the MBC [21] was 3.91 µM. For the same molecule, the MBC [22] was 15.6 µM, the MIC [23] was 31.2 µM and the MFC [24] was 31.2 µM. The MIC95 [25] was 31.2 µM, the MIC95 [26] was 31.2 µM and the MBC [27] was 15.6 µM. The MFC [28] was 250 µM, the MIC95 [29] was 1.95 µM and the MIC [30] was 15.6 µM. It also gave an MIC95 [31] of 62.5 µM, an MIC95 [32] of 1.95 µM and an MIC [33] of 3.91 µM. It also gave an MIC [34] of 15.6 µM, an MIC95 [35] of 62.5 µM and an MIC95 [36] of 7.81 µM. It also gave an MIC95 [37] of 250 µM, an MIC [38] of 3.91 µM and an MFC [39] of 7.81 µM. It also gave an MIC [40] of 15.6 µM, an MFC [41] of 15.6 µM and an MIC95 [42] of 125 µM. For the same molecule, the MBC [43] was 250 µM, the MIC [44] was 15.6 µM and the MIC [45] was 7.81 µM. The MIC95 [46] was 0.98 µM, the MIC [47] was 31.2 µM and the MIC [48] was 7.81 µM. It also gave an MBC [49] of 7.81 µM, a Retention_time [50] of 1.65 min and an MFC [51] of 15.6 µM.

Molecule CCCCCCCCCCCCCCCC[n+]1cccc2cc(O)ccc21.[Br-] has an MBC [1] of 500 µM, a Retention_time [2] of 10.77 min and an MIC95 [3] of 0.49 µM. The MIC [4] was 7.81 µM, the MBC [5] was greater than 500 µM and the IC50 [6] was 20 µM. It also gave an MBC [7] greater than 500 µM, an MIC [8] of 3.91 µM and an MFC [9] of 500 µM. For the same molecule, the MIC95 [10] was 3.91 µM, the MIC95 [11] was 500 µM and the MIC [12] was 7.81 µM. For the same molecule, the MIC [13] was 3.91 µM, the MIC95 [14] was 0.98 µM and the MIC95 [15] was 3.91 µM. The MFC [16] was 62.5 µM, the MIC95 [17] was greater than 500 µM and the MIC [18] was 7.81 µM. It also gave an MIC [19] of 7.81 µM, an MFC [20] of 62.5 µM and an MBC [21] of 3.91 µM. The MBC [22] was 3.91 µM, the MIC [23] was 7.81 µM and the MFC [24] was 62.5 µM. For the same molecule, the MIC95 [25] was greater than 500 µM, the MIC95 [26] was 500 µM and the MBC [27] was 7.81 µM. The MFC [28] was 250 µM, the MIC95 [29] was 0.98 µM and the MIC [30] was 15.6 µM. The MIC95 [31] was greater than 500 µM, the MIC95 [32] was 3.91 µM and the MIC [33] was 3.91 µM. For the same molecule, the MIC [34] was 7.81 µM, the MIC95 [35] was greater than 500 µM and the MIC95 [36] was 3.91 µM. It also gave an MIC95 [37] greater than 500 µM, an MIC [38] of 3.91 µM and an MFC [39] of 125 µM. For the same molecule, the MIC [40] was 7.81 µM, the MFC [41] was 125 µM and the MIC95 [42] was greater than 500 µM. It also gave an MBC [43] greater than 500 µM, an MIC [44] of 7.81 µM and an MIC [45] of 3.91 µM. For the same molecule, the MIC95 [46] was 0.49 µM, the MIC [47] was 15.6 µM and the MIC [48] was 3.91 µM. For the same molecule, the MBC [49] was 7.81 µM, the Retention_time [50] was 3.3 min and the MFC [51] was 3.91 µM.

CCCCCCCCCCCCCCCCCC[n+]1cccc2cc(O)ccc21.[Br-] showed a Retention_time [2] of 11.47 min and a Retention_time [50] of 7.06 min.
